Patent publication US8772448B2, “Peptides immunoreactive with autoantibodies from patients suffering from rheumatoid arthritis” (Stichting Voor de Technische Wetenschappen, priority 1996, dated 2014)
Where no end group is shown, it is not given here. [ ]: non-standard residue; d: D form. Cit = NC(=O)NCCC[C@H](N)C(=O)O

Key:
[1] = system: autoimmune antibodies in sera from patients suffering from rheumatoid arthritis; experiment: ELISA of coupled peptides with RA sera; format: binding, human; conditions: n = 134 RA sera, positive = OD450 of 0.2 after deduction of blank; for RA sera: number of positive sera: sera diluted 200 times
Description: (§1) Detection by Means of ELISA
Via an N-oxysuccinimide surface the peptides were covalently coupled to the wells of 96-well microtitre plates (Costar amide binding plates) in an amount of 1 ? g/well. Coupling took place for 16 hours at 4EC and pH 9.0. The plates were blocked for 1 hour with 2% bovine serum albumin. The sera were diluted 200 times in a diluent (0.3% BSA, 350 mM NaCl, 10 mM Tris-HCl pH 7.6, 1% vol./vol. Triton X-100, 0.5% w./vol. Na-deoxycholate, 0.1% SDS) supplemented with 10% normal rabbit serum, and incubated for one hour at room temperature. After washing the plates (3 times with PBS containing 0.05 by vol. of Tween® 20), 100 ? l of antihuman IgG conjugated with peroxidase (Dako P214), 1000 times diluted in dilution buffer, was added to the wells. After incubation for 1 hour at room temperature, the plates were washed 3 times with PBS/Tween®, and bound antibodies were detected with tetramethyl benzidine as a substrate. After 10 minutes the reaction was stopped by adding 100 ? l of 2 M sulphuric acid per well. Readout occurred at 450 nm. Sera having an OD450 of 0.2, after deduction of the blank for the respective serum (a well without a coupled peptide), were considered to be positive. […]

[2] = system: antibodies in PM/DM (polymyositis/dermatomyositis) sera; experiment: ELISA of coupled peptides with PM/DM sera; format: binding, human; conditions: n = 50
Description: as §1
(§2) Via an N-oxysuccinimide surface the peptides were covalently coupled to the wells of 96-well microtitre plates (Costar amide binding plates) in an amount of 1 ? g/well. Coupling took place for 16 hours at 4EC and pH 9.0. The plates were blocked for 1 hour with 2% bovine serum albumin. The sera were diluted 200 times in a diluent (0.3% BSA, 350 mM NaCl, 10 mM Tris-HCl pH 7.6, 1% vol./vol. Triton X-100, 0.5% w./vol. Na-deoxycholate, 0.1% SDS) supplemented with 10% normal rabbit serum, and incubated for one hour at room temperature. After washing the plates (3 times with PBS containing 0.05 by vol. of Tween® 20), 100 ? l of antihuman IgG conjugated with peroxidase (Dako P214), 1000 times diluted in dilution buffer, was added to the wells. After incubation for 1 hour at room temperature, the plates were washed 3 times with PBS/Tween®, and bound antibodies were detected with tetramethyl benzidine as a substrate. After 10 minutes the reaction was stopped by adding 100 ? l of 2 M sulphuric acid per well. Readout occurred at 450 nm. Sera having an OD450 of 0.2, after deduction of the blank for the respective serum (a well without a coupled peptide), were considered to be positive.

[3] = system: antibodies in SLE (systemic lupus erythematosus) sera; experiment: ELISA of coupled peptides with SLE sera; format: binding, human; conditions: n = 50
Description: as §1, §2

[4] = system: antibodies in pSS (primary Sjögren's syndrome) sera; experiment: ELISA of coupled peptides with pSS sera; format: binding, human; conditions: n = 50
Description: as §1, §2

[5] = system: antibodies in control sera from patients suffering from rheumatic diseases other than RA; experiment: ELISA of coupled peptides with control sera; format: binding, human; conditions: for control sera (%) positive / control sera: number of positive sera: n = 154, rheumatic diseases other than RA
Description: as §1, §2
In total, 288 sera from patients suffering from rheumatoid diseases were used, 132 of which were from patients suffering from rheumatoid arthritis.

[6] = system: antibodies in sera from patients suffering from various infectious diseases; experiment: ELISA with sera from patients suffering from various infectious diseases; format: binding, human; conditions: 308 tested sera
[7] = system: recombinant monoclonal antibody described by applicants; experiment: Reactivity of peptides with the recombinant monoclonal antibody; format: binding
[8] = system: antibodies in SSC (systemic scleroderma) sera; experiment: ELISA of coupled peptides with SSC sera; format: binding, human; conditions: n = 50
Description: as §1, §2

Sequence | RA sera (%) positive [1] | RA sera (%) positive ([1]; listed as Formula II) | RA sera: number of positive sera [1] | PM/DM: number of positive sera [2] | SLE (%) positive [3] | SLE: number of positive sera [3] | pSS: number of positive sera [4] | control sera (%) positive [5] | control sera: number of positive sera [5] | percentage of false positives ([5]; other autoimmune diseases and healthy individuals) | infectious disease sera: number positive [6] | specificity in respect of infectious disease sera [6] | reactivity with the recombinant monoclonal antibody [7] | SSC: number of positive sera [8] | PM/DM (%) positive [2] | pSS (%) positive [4]
SHQESTXGRSRGRSGRSGS (SHQEST[Cit]GRSRGRSGRSGS-NH2; N-terminus assumed; SMILES C[C@@H](O)[C@H](NC(=O)[C@H](CO)NC(=O)[C@H](CCC(=O)O)NC(=O)[C@H](CCC(N)=O)NC(=O)[C@H](Cc1c[nH]cn1)NC(=O)[C@@H](N)CO)C(=O)N[C@@H](CCCNC(N)=O)C(=O)NCC(=O)N[C@@H](CCCNC(=N)N)C(=O)N[C@@H](CO)C(=O)N[C@@H](CCCNC(=N)N)C(=O)NCC(=O)N[C@@H](CCCNC(=N)N)C(=O)N[C@@H](CO)C(=O)NCC(=O)N[C@@H](CCCNC(=N)N)C(=O)N[C@@H](CO)C(=O)NCC(=O)N[C@@H](CO)C(N)=O) [cfc1] | 36% | about 36% | 49 | 0 | 2% | 1 | 0 | 0.6% | 1 | less than 2% | 9 | 97% | reactive | 0 |  | 
SHQESTXGRSXGRSGRSGS (SHQEST[Cit]GRS[Cit]GRSGRSGS-NH2; N-terminus assumed; SMILES C[C@@H](O)[C@H](NC(=O)[C@H](CO)NC(=O)[C@H](CCC(=O)O)NC(=O)[C@H](CCC(N)=O)NC(=O)[C@H](Cc1c[nH]cn1)NC(=O)[C@@H](N)CO)C(=O)N[C@@H](CCCNC(N)=O)C(=O)NCC(=O)N[C@@H](CCCNC(=N)N)C(=O)N[C@@H](CO)C(=O)N[C@@H](CCCNC(N)=O)C(=O)NCC(=O)N[C@@H](CCCNC(=N)N)C(=O)N[C@@H](CO)C(=O)NCC(=O)N[C@@H](CCCNC(=N)N)C(=O)N[C@@H](CO)C(=O)NCC(=O)N[C@@H](CO)C(N)=O) [cfc7] | 45% |  | 60 | 1 |  | 0 | 1 | 0.6% | 1 |  |  |  |  | 0 | 2% | 2%
SHQESTXGXSRGRSGRSGS (SHQEST[Cit]G[Cit]SRGRSGRSGS-NH2; N-terminus assumed; SMILES C[C@@H](O)[C@H](NC(=O)[C@H](CO)NC(=O)[C@H](CCC(=O)O)NC(=O)[C@H](CCC(N)=O)NC(=O)[C@H](Cc1c[nH]cn1)NC(=O)[C@@H](N)CO)C(=O)N[C@@H](CCCNC(N)=O)C(=O)NCC(=O)N[C@@H](CCCNC(N)=O)C(=O)N[C@@H](CO)C(=O)N[C@@H](CCCNC(=N)N)C(=O)NCC(=O)N[C@@H](CCCNC(=N)N)C(=O)N[C@@H](CO)C(=O)NCC(=O)N[C@@H](CCCNC(=N)N)C(=O)N[C@@H](CO)C(=O)NCC(=O)N[C@@H](CO)C(N)=O) [cfc6] | 48% |  | 65 | 1 |  | 0 | 2 | 0.6% | 1 |  |  |  |  | 0 | 2% | 4%
